Data on 32 molecules can be found in patent US20220009906A1, “ISOINDOLIN-1-ONE DERIVATIVES USEFUL AS GRK2 INHIBITORS” (priority 2020, published 2022).

The first test addresses T1, GRK2 (Homo sapiens, UniProt P25098).
T1 sequence (P25098 1-689): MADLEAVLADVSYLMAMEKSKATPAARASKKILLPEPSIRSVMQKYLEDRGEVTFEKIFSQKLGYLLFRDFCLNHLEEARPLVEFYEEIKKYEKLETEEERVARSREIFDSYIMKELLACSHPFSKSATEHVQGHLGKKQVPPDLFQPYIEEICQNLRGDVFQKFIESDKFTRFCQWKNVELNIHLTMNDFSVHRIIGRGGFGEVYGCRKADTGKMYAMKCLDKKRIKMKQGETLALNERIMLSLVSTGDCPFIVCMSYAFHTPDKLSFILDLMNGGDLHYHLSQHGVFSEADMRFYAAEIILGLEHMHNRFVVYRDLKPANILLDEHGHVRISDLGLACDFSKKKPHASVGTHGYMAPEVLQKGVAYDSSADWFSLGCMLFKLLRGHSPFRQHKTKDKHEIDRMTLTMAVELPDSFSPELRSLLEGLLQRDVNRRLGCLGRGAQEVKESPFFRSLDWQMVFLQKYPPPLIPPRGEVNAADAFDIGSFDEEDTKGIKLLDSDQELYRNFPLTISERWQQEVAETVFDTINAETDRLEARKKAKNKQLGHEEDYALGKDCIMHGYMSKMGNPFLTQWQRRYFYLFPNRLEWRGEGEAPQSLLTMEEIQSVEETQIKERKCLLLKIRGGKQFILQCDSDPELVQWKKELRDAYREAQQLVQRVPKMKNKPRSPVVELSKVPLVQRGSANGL
Briefly: hGRK2 LANCE Ultra In Vitro Assay. It is filed as biochemical.
Conditions: not given
As for the experimental part: hGRK2 LANCE Ultra In Vitro Assay
G-protein coupled receptor kinases (GR Kinases) desensitize activated G-protein coupled receptors (GPCRs), by phosphorylation of cytoplasmic loops or carboxyl-terminal tails of GPCRs. GRK2 is one of the 6 different GR kinases and is implicated in heart failure and diabetes.
This assay is sensitive and requires as low as 10 nM enzyme, in a total volume of 10 μL. In addition, the ATP concentration can be varied over a broad range, without interfering with the assay or changing the assay condition. […] Testing inhibitors routinely at both high and low ATP concentrations also enables identification of potential non-ATP competitive inhibitors.
Paroxetine was used as the reference compound in this assay.
Test compounds were dissolved in DMSO at 1 mM and were 3-fold serial diluted. The compound DMSO solutions were then added (100 nL) into a plate well using an acoustic dispenser. To each well was then added 20 nM GRK2 (5 μL) in assay buffer (20 mM HEPES, pH 7.5, 10 mM MgCl2, 0.001% Tween-20®). The plate was sealed and centrifuged at 1000 rpm for 1 min. The plate and wells containing a mixture of GRK2 and test compound were incubated at ambient temperature for 30 min (prior to initializing the enzymatic reaction).
Enzyme reactions were initiated by the addition of 4.9 μL Substrates/Eu-Ab mix to each well. […] Final concentrations of reagents in the assays were as follows: 20 mM HEPES, pH 7.5; 10 mM MgCl2; 0.001% Tween-20® (w/v); 30 or 600 μM ATP; 200 nM ULight-peptide; 4 nM Eu-Ab; 10 nM GRK2; and 1% DMSO.
The plates were sealed and centrifuged at 1000 rpm for 1 min. For reactions at low ATP concentration (30 μM), reaction mixtures were incubated at ambient temperature for 120 min. For reactions at high ATP concentration (600 μM), reaction mixtures were incubated at ambient temperature for 60 min.
The enzyme reactions were quenched by addition of 10 μL of 12 mM EDTA in 1× LANCE detection solution to each well. The plates were then incubated at ambient temperature for 30 min. Time-resolved fluorescence signal of reactions were read on an EnVision or PHERAstar plate reader with the following parameters: Excitation wavelength=337 nm; emission wavelength (donor)=620 nm; emission wavelength (acceptor)=665 nm.
The raw HTRF data were converted to % active as follows:
% active=(sample−NC)/(PC−NC)*100
where NC is the mean of negative control (reactions without GRK2), and PC is the mean of positive control (reactions with GRK2 but without inhibitor). IC50 values were determined from a 4-parameter fit, using the following equation:
Y=Bottom+(Top−Bottom)/(1+10^((Log IC50−X)*Hill slope))
where X=log10 of the compound concentration.
As a reminder, the IC50 is the point on the concentration scale where inhibition reaches its midpoint. Read a low IC50 as higher potency. Turning to `COc1cccc(CN2C(=O)c3cc(-c4cn[nH]c4)ccc3C23CCCC3C(=O)O)c1` (centres unmarked) [Compound 110, 2′-(3-methoxybenzyl)-3′-oxo-5′-(1H-pyrazol-4-yl)spiro[cyclopentane-1,1′-isoindoline]-2-carboxylic acid], the IC50 was 0.307 µM.

The test is the same for the next values; noted with them: Biological Example 1 GRK2 Lancer IC50 (μM), 10 nM GRK2; 30 or 600 μM ATP (not stated which); multiple measurements listed individually.
Turning to `COc1cccc([C@@H](C)N2Cc3ccc(-c4cn[nH]c4)c(F)c3C2=O)c1` [Compound 30, 7-fluoro-2-[(1R)-1-(3-methoxyphenyl)ethyl]-6-(1H-pyrazol-4-yl)isoindolin-1-one], the concentration for half-maximal inhibition (IC50) was less than 0.005 µM.

The molecule `CCOc1cccc([C@@H](C)N2Cc3ccc(-c4cn[nH]c4)c(F)c3C2=O)c1` [Compound 48] yielded an IC50 of 0.01 µM.

`COc1cccc(CN2C(=O)c3cc(-c4cn[nH]c4)ccc3C23CCCC3C(N)=O)c1` (centres unmarked) [Compound 111, 2′-(3-methoxybenzyl)-3′-oxo-5′-(1H-pyrazol-4-yl)spiro[cyclopentane-1,1′-isoindoline]-2-carboxamide] yielded an IC50 of 0.007 µM. The same measure, in the same setting: in the case of `O=C1c2cc(-c3ccncn3)ccc2CN1Cc1cccc(Oc2ccccc2)c1` [Compound 106] it was 0.419 µM. On the same count and under the same terms, next, `COc1cccc(C(CO)N2Cc3c(cc(-c4cn[nH]c4)cc3-c3cncc(F)c3)C2=O)c1` (centres unmarked) [Compound 152, 4-(5-fluoropyridin-3-yl)-2-(2-hydroxy-1-(3-methoxyphenyl)ethyl)-6-(1H-pyrazol-4-yl)isoindolin-1-one]: 0.017 µM; `CNC(=O)c1cc(-c2ccc3c(c2)C(=O)N(Cc2cccc(OC)c2)C3)ccn1` [Compound 37, 4-(2-(3-methoxybenzyl)-3-oxoisoindolin-5-yl)-N-methylpicolinamide]: greater than 20 µM. `O=C(Oc1cccc(CN2Cc3ccc(-c4cn[nH]c4)cc3C2=O)c1)C1CC1` [Compound 137]: the IC50 came to 0.034 µM. In other words, the double-digit nanomolar range. The same measure, in the same setting: next, `COc1cccc([C@@H](C)N2Cc3ccc(-n4cn[nH]c4=O)cc3C2=O)c1` [Compound 40, (R)-2-(1-(3-methoxyphenyl)ethyl)-6-(5-oxo-1,5-dihydro-4H-1,2,4-triazol-4-yl)isoindolin-1-one]: 0.115 µM; `COc1cccc(C(CO)N2Cc3c(cc(-c4cn[nH]c4)cc3-c3cccnc3)C2=O)c1` (centres unmarked) [Compound 142, 2-(2-hydroxy-1-(3-methoxyphenyl)ethyl)-6-(1H-pyrazol-4-yl)-4-(pyridin-3-yl)isoindolin-1-one]: 0.008 µM; `C[C@H](c1cccc(C(=O)Nc2ccc(F)c(F)c2)c1)N1Cc2ccc(-c3cn[nH]c3)cc2C1=O` [Compound 32]: 0.261 µM. `O=C(N[C@H]1C[C@H]2CC[C@@H]1C2)c1cccc(CN2Cc3ccc(-c4cn[nH]c4)cc3C2=O)c1` [Compound 128]: the IC50 is less than 0.005 µM. `COc1cccc(C(CO)N2Cc3c(cc(-c4cn[nH]c4)cc3-c3cccc(O)c3)C2=O)c1` (centres unmarked) [Compound 143, 2-(2-hydroxy-1-(3-methoxyphenyl)ethyl)-4-(3-hydroxyphenyl)-6-(1H-pyrazol-4-yl)isoindolin-1-one] yielded an IC50 of 0.005 µM. Same read-out and setting: next, `COc1cccc(C(CO)N2C(=O)c3cc(-c4cn[nH]c4)ccc3C23CCCC3)c1` (centres unmarked) [Compound 79, 2′-(2-hydroxy-1-(3-methoxyphenyl)ethyl)-5′-(1H-pyrazol-4-yl)spiro[cyclopentane-1,1′-isoindolin]-3′-one]: 0.03 µM; `COc1cccc(C(COCC(=O)O)N2Cc3ccc(-c4cn[nH]c4)cc3C2=O)c1` (centres unmarked) [Compound 60, 2-(2-(3-methoxyphenyl)-2-(1-oxo-6-(1H-pyrazol-4-yl)isoindolin-2-yl)ethoxy)acetic acid]: 0.017 µM; `COc1cccc([C@@H](C)N2Cc3c(cc(-c4cn[nH]c4)cc3-c3ccc(O)cc3)C2=O)c1` [Compound 129, (R)-4-(4-hydroxyphenyl)-2-(1-(3-methoxyphenyl)ethyl)-6-(1H-pyrazol-4-yl)isoindolin-1-one]: 0.011 µM. On the same count and under the same terms, next, `O=C(NC1CC2CCC1C2)c1cccc(CN2Cc3ccc(-c4cn[nH]c4)cc3C2=O)c1` (centres unmarked) [Compound 174]: 0.003 µM.

For `COc1cccc([C@@H](C)N2Cc3c(cc(-c4cn[nH]c4)cc3-c3cncc(F)c3)C2=O)c1` [Compound 120, (R)-4-(5-fluoropyridin-3-yl)-2-(1-(3-methoxyphenyl)ethyl)-6-(1H-pyrazol-4-yl)isoindolin-1-one], the IC50 was 0.009 µM. The same measure, in the same setting: in the case of `COc1ccnc(CN2Cc3ccc(-c4cn[nH]c4)cc3C2=O)c1` [Compound 105] it was 0.071 µM; in that of `COc1cccc([C@@H](C)N2Cc3c(cc(-c4cn[nH]c4)cc3-c3ccnc(C(C)(C)C)c3)C2=O)c1` [Compound 154, (R)-4-(2-(tert-butyl)pyridin-4-yl)-2-(1-(3-methoxyphenyl)ethyl)-6-(1H-pyrazol-4-yl)isoindolin-1-one], 0.932 µM. Same read-out and setting: in the case of `O=C(O)COc1cccc(CN2Cc3ccc(-c4ccnc5[nH]ccc45)cc3C2=O)c1` [Compound 57] it was 2.56 µM; in that of `CC(C)NC(=O)c1cccc([C@@H](C)N2Cc3ccc(-c4cn[nH]c4)cc3C2=O)c1` [Compound 31], 5.38 µM; in that of `COc1cccc(CN2Cc3ccc(-c4ccncc4)cc3C2=O)c1` [Compound 66], 0.023 µM.

Consider `O=C1c2cc(-c3cn[nH]c3)ccc2CN1Cc1cccc(O)c1` [Compound 135], for which half-maximal inhibition (IC50) required 0.005 µM. Same read-out and setting: in the case of `COc1cccc(C(CO)N2Cc3ccc(-c4cccnc4)cc3C2=O)c1` (centres unmarked) [Compound 83, 2-(2-hydroxy-1-(3-methoxyphenyl)ethyl)-6-(pyridin-3-yl)isoindolin-1-one] it was 0.024 µM; in that of `COc1cccc(CN2C(=O)c3cc(-c4cn[nH]c4)ccc3C23CCC(O)C3)c1` (centres unmarked) [Compound 46, 3-hydroxy-2′-(3-methoxybenzyl)-5′-(1H-pyrazol-4-yl)spiro[cyclopentane-1,1′-isoindolin]-3′-one], 0.007 µM. The same measure, in the same setting: next, `O=C(O)COc1cccc(CN2Cc3ccc(-c4cn[nH]c4)cc3C2=O)c1` [Compound 55]: 0.011 µM. Same read-out and setting: in the case of `COc1cccc(C(CO)N2Cc3ccc(-c4cn[nH]c4)cc3C2=O)c1` (racemic) [Compound 38, 2-(2-hydroxy-1-(3-methoxyphenyl)ethyl)-6-(1H-pyrazol-4-yl)isoindolin-1-one] it was 0.006 µM; in that of `O=C(Nc1ccc(F)c(F)c1)c1cccc(CN2Cc3ccc(-c4cn[nH]c4)cc3C2=O)c1` [Compound 34], 0.006 µM. As for `CNC(=O)c1nccc(-c2ccc3c(c2)C(=O)N(Cc2ccc(OC)cc2)C3)n1` [Compound 47, 4-(2-(4-methoxybenzyl)-3-oxoisoindolin-5-yl)-N-methylpyrimidine-2-carboxamide], the IC50 is roughly 10 µM. On the same count and under the same terms, in the case of `COc1cccc(CN2C(=O)c3cc(-c4cn[nH]c4)ccc3C23CCOCC3)c1` [Compound 82, 2-(3-methoxybenzyl)-5-(1H-pyrazol-4-yl)-2′,3′,5′,6′-tetrahydrospiro[isoindoline-1,4′-pyran]-3-one] it was 0.007 µM; in that of `O=C1c2cc(-c3cn[nH]c3)ccc2CN1Cc1cccs1` [Compound 28, 6-(1H-Pyrazol-4-yl)-2-(thiophen-2-ylmethyl)isoindolin-1-one], 0.091 µM.
